Data on twelve molecules can be found in ChEMBL document CHEMBL1135097, “New readily accessible peroxides with high anti-malarial potency” (Bioorg Med Chem Lett, 2002).

The subject of one data set is KB 3-1. Description: Compound was tested for cytotoxicity against human epidermoid carcinoma KB 3-1. It counts as functional, cell-based.
The next data set deals with Plasmodium falciparum. Put plainly: Antimalarial activity against Plasmodium falciparum. It counts as functional, organism-based.
A short description of data set [1]: (§1) Selective toxicity index between parasite and cells of host-animals, human epidermoid carcinoma KB 3-1. Particulars: KB 3-1 human epidermoid carcinoma cells. In kind it is organism-based.
The species entered for another data set is Homo sapiens. Described as §1. In kind it is organism-based.

On to `COC(=O)CC1CCC(C)(OC)OO1` (centres undefined), for which the IC50 in the data set with KB 3-1 (Homo sapiens, KB 3-1) was over 0.49 µM; in the data set on Plasmodium falciparum (Plasmodium falciparum) it was over 2400 nM.

Regarding `CCCCC[C@]1(OC)CC[C@@H](CC(=O)OC)OO1`, the IC50 worked out at 53 µM in the data set with KB 3-1 (Homo sapiens, KB 3-1) and 150 nM with Plasmodium falciparum (Plasmodium falciparum). Besides, in data set [1], the selectivity ratio is 350.

In the case of `CC/C=C/C=C/CC[C@]1(OC)CC[C@H]([C@@H](C)C(=O)OC)OO1`, the IC50 turned out to be 28 µM in the data set with KB 3-1 (Homo sapiens, KB 3-1) and 120 nM in the data set on Plasmodium falciparum (Plasmodium falciparum). Also, in data set [1], the selectivity ratio was found to be 230.

With `CCCCC[C@]1(OC)CC[C@H](CC(=O)OC)OO1`, the IC50 is 23 µM with KB 3-1 (Homo sapiens, KB 3-1) and 150 nM in the data set with Plasmodium falciparum (Plasmodium falciparum). The selectivity ratio in data set [1] was found to be 150.

`CCCCCCCCCC1(OC)CCC(CC(=O)OC)OO1` (centres undefined): the IC50 with KB 3-1 (Homo sapiens, KB 3-1) came to 4.4 µM; in the data set on Plasmodium falciparum (Plasmodium falciparum), 140 nM. Further, the selectivity ratio in data set [1] worked out at 31.

With `CCCCCCCCC[C@]1(OC)CC[C@@H](CC(=O)OC)OO1`, the half-maximal inhibitory concentration (IC50) in the data set with KB 3-1 (Homo sapiens, KB 3-1) is 4.4 µM; in the data set on Plasmodium falciparum (Plasmodium falciparum), 170 nM. The selectivity ratio in data set [1] came to 26.

As for `CCCCCCCCC[C@]1(OC)CC[C@H](CC(=O)OC)OO1` (relative stereo), the IC50 in the data set on KB 3-1 (Homo sapiens, KB 3-1) is 2.2 µM; with Plasmodium falciparum (Plasmodium falciparum), 260 nM. In addition, in data set [1], the selectivity ratio was 8.

For `CC/C=C/C=C/CC[C@]1(OC)CC[C@@H](C(C)C(=O)OC)OO1` (single isomer, unassigned), the half-maximal inhibitory concentration (IC50) with KB 3-1 (Homo sapiens, KB 3-1) worked out at 21 µM; in the data set with Plasmodium falciparum (Plasmodium falciparum), 150 nM. In data set [1], the selectivity ratio turned out to be 140.

Turning to `CCCCCC1(OC)CCC(CC(=O)OC)OO1` (single isomer, unassigned; (+)), the IC50 with KB 3-1 (kb 3-1) came to 77 µM; in the data set on Plasmodium falciparum it was 220 nM. Also, in the data set filed under Homo sapiens, the Ratio amounted to 350.

For the molecule `CCCCCC1(OC)CCC(CC(=O)OC)OO1` (single isomer, unassigned; (-)), in the data set with KB 3-1 (kb 3-1), it took 82 µM to reach half-maximal inhibition (IC50). Also, the Ratio in the data set listed under Homo sapiens was 370.

Turning to `CCCCCC1(OC)CCC(CC(=O)OC)OO1` (stereo in doubt; 5), the IC50 with KB 3-1 (Homo sapiens, KB 3-1) worked out at 43 µM; in the data set on Plasmodium falciparum (Plasmodium falciparum), 120 nM. For the same molecule, the selectivity ratio in data set [1] was 360.

On to `CCCCCCCCCCCCCCCC[C@@]1(OC)C=C[C@@H](CC(=O)OC)OO1` [CHONDRILLIN], for which the IC50 was 0.63 µM with KB 3-1 (Homo sapiens, KB 3-1) and over 240 nM with Plasmodium falciparum (Plasmodium falciparum). For the same molecule, the selectivity ratio in data set [1] is under 2.6.
